{"source": "paper PMC10033409", "about": "“Autoregulation of GPCR signalling through the third intracellular loop” (Nature, 2023)", "test_system": "β2AR", "conditions": "for competition binding curve vs isoproterenol (Extended Data Figure 3M) / competition binding curve vs isoproterenol (Extended Data Figure 3M), Fit: Sensor; for competition binding curve vs isoproterenol (Extended Data Figure 3M), Fit / competition binding curve vs isoproterenol (Extended Data Figure 3L), Fit: fitted curve", "note": "Values joined by “and” are separate entries in the source; they are usually repeats but may differ in a detail not shown here. Identical values can stand only once. Counter-ions that a name gives are not always drawn. Like-named read-outs stand apart in the source and are kept apart here.", "data": [{"smiles": "CC(C)NCC(O)c1ccc(O)c(O)c1", "note": "(stereo not drawn) [Isoproterenol, isoproterenol (+)-bitartrate salt]", "values": [{"measurement": "competition binding curve vs isoproterenol (Extended Data Figure 3M)", "setting": "Isoproterenol 1.00E-10 M, replicates 1-3 and Average", "value": "100.71 and 99.53 and 99.04 and 99.76"}, {"measurement": "competition binding curve vs isoproterenol (Extended Data Figure 3M), Fit", "setting": "Isoproterenol 5.00E-06 M", "value": 10.04}, {"measurement": "competition binding curve vs isoproterenol (Extended Data Figure 3M)", "setting": "Isoproterenol 5.00E-06 M, replicates 2-3 and Average", "value": "10.13 and 9.02 and 9.58"}, {"measurement": "competition binding curve vs isoproterenol (Extended Data Figure 3M), Fit", "setting": "Isoproterenol 5.00E-07 M", "value": 42.59}, {"measurement": "competition binding curve vs isoproterenol (Extended Data Figure 3M)", "setting": "Isoproterenol 5.00E-07 M, replicates 2-3 and Average", "value": "41.48 and 44.45 and 42.96"}, {"measurement": "competition binding curve vs isoproterenol (Extended Data Figure 3L), Fit", "setting": "Wild-Type + Gs-Peptide, Isoproterenol 1.00E-03 M", "value": 0.69}, {"measurement": "competition binding curve vs isoproterenol (Extended Data Figure 3L)", "setting": "Wild-Type + Gs-Peptide, Isoproterenol 1.00E-03 M, replicates 1-3 and Average", "value": "0.0116 and 0.0442 and 0.27 and -0.28"}, {"measurement": "competition binding curve vs isoproterenol (Extended Data Figure 3L), Fit", "setting": "Wild-Type + Gs-Peptide, Isoproterenol 1.00E-04 M", "value": 1.04}, {"measurement": "competition binding curve vs isoproterenol (Extended Data Figure 3L)", "setting": "Wild-Type + Gs-Peptide, Isoproterenol 1.00E-04 M, replicates 1-3 and Average", "value": "0.88 and 0.89 and 0.84 and 0.90"}, {"measurement": "competition binding curve vs isoproterenol (Extended Data Figure 3L), Fit", "setting": "Wild-Type + Gs-Peptide, Isoproterenol 1.00E-05 M", "value": 4.37}, {"measurement": "competition binding curve vs isoproterenol (Extended Data Figure 3L)", "setting": "Wild-Type + Gs-Peptide, Isoproterenol 1.00E-05 M, replicates 1-3 and Average", "value": "5.43 and 5.70 and 4.92 and 5.68"}, {"measurement": "competition binding curve vs isoproterenol (Extended Data Figure 3L), Fit", "setting": "Wild-Type + Gs-Peptide, Isoproterenol 1.00E-06 M", "value": 26.38}, {"measurement": "competition binding curve vs isoproterenol (Extended Data Figure 3L)", "setting": "Wild-Type + Gs-Peptide, Isoproterenol 1.00E-06 M, replicates 1-3 and Average", "value": "26.11 and 25.98 and 23.88 and 28.47"}, {"measurement": "competition binding curve vs isoproterenol (Extended Data Figure 3L), Fit", "setting": "Wild-Type + Gs-Peptide, Isoproterenol 1.00E-07 M", "value": 67.56}, {"measurement": "competition binding curve vs isoproterenol (Extended Data Figure 3L)", "setting": "Wild-Type + Gs-Peptide, Isoproterenol 1.00E-07 M, replicates 1-3 and Average", "value": "67.66 and 67.54 and 65.49 and 69.94"}, {"measurement": "competition binding curve vs isoproterenol (Extended Data Figure 3L), Fit", "setting": "Wild-Type + Gs-Peptide, Isoproterenol 1.00E-08 M", "value": 91.53}, {"measurement": "competition binding curve vs isoproterenol (Extended Data Figure 3L)", "setting": "Wild-Type + Gs-Peptide, Isoproterenol 1.00E-08 M, replicates 1-3 and Average", "value": "91.27 and 90.42 and 91.58 and 91.80"}, {"measurement": "competition binding curve vs isoproterenol (Extended Data Figure 3L), Fit", "setting": "Wild-Type + Gs-Peptide, Isoproterenol 1.00E-09 M", "value": 98.02}, {"measurement": "competition binding curve vs isoproterenol (Extended Data Figure 3L)", "setting": "Wild-Type + Gs-Peptide, Isoproterenol 1.00E-09 M, replicates 1-3 and Average", "value": "99.15 and 99.41 and 97.66 and 100.39"}, {"measurement": "competition binding curve vs isoproterenol (Extended Data Figure 3L), Fit", "setting": "Wild-Type + Gs-Peptide, Isoproterenol 1.00E-10 M", "value": 98.82}, {"measurement": "competition binding curve vs isoproterenol (Extended Data Figure 3L)", "setting": "Wild-Type + Gs-Peptide, Isoproterenol 1.00E-10 M, replicates 1-3 and Average", "value": "99.26 and 100.00 (2×) and 97.78"}, {"measurement": "competition binding curve vs isoproterenol (Extended Data Figure 3L)", "setting": "Wild-Type, Isoproterenol 1.00E-03 M, replicates 1-3 and Average", "value": "-0.10 and -0.40 and -0.34 and -0.28"}, {"measurement": "competition binding curve vs isoproterenol (Extended Data Figure 3L), Fit", "setting": "Wild-Type, Isoproterenol 1.00E-04 M", "value": 0.67}, {"measurement": "competition binding curve vs isoproterenol (Extended Data Figure 3L)", "setting": "Wild-Type, Isoproterenol 1.00E-04 M, replicates 1-3 and Average", "value": "0.94 and 0.31 and 1.43 and 0.89"}, {"measurement": "competition binding curve vs isoproterenol (Extended Data Figure 3L), Fit", "setting": "Wild-Type, Isoproterenol 1.00E-05 M", "value": 5.86}, {"measurement": "competition binding curve vs isoproterenol (Extended Data Figure 3L)", "setting": "Wild-Type, Isoproterenol 1.00E-05 M, replicates 1-3 and Average", "value": "6.24 and 5.08 and 7.57 and 6.30"}, {"measurement": "competition binding curve vs isoproterenol (Extended Data Figure 3L), Fit", "setting": "Wild-Type, Isoproterenol 1.00E-06 M", "value": 32.07}, {"measurement": "competition binding curve vs isoproterenol (Extended Data Figure 3L)", "setting": "Wild-Type, Isoproterenol 1.00E-06 M, replicates 1-3 and Average", "value": "32.68 and 27.33 and 35.77 and 31.93"}, {"measurement": "competition binding curve vs isoproterenol (Extended Data Figure 3L), Fit", "setting": "Wild-Type, Isoproterenol 1.00E-07 M", "value": 78.70}, {"measurement": "competition binding curve vs isoproterenol (Extended Data Figure 3L)", "setting": "Wild-Type, Isoproterenol 1.00E-07 M, replicates 1-3 and Average", "value": "79.40 and 70.32 and 85.20 and 78.31"}, {"measurement": "competition binding curve vs isoproterenol (Extended Data Figure 3L), Fit", "setting": "Wild-Type, Isoproterenol 1.00E-08 M", "value": 97.15}, {"measurement": "competition binding curve vs isoproterenol (Extended Data Figure 3L)", "setting": "Wild-Type, Isoproterenol 1.00E-08 M, replicates 1-3 and Average", "value": "99.13 and 95.83 and 100.15 and 98.37"}, {"measurement": "competition binding curve vs isoproterenol (Extended Data Figure 3L), Fit", "setting": "Wild-Type, Isoproterenol 1.00E-09 M", "value": 99.60}, {"measurement": "competition binding curve vs isoproterenol (Extended Data Figure 3L)", "setting": "Wild-Type, Isoproterenol 1.00E-09 M, replicates 1-3 and Average", "value": "96.70 and 99.42 and 102.28 and 99.47"}, {"measurement": "competition binding curve vs isoproterenol (Extended Data Figure 3L), Fit", "setting": "Wild-Type, Isoproterenol 1.00E-10 M", "value": 99.85}, {"measurement": "competition binding curve vs isoproterenol (Extended Data Figure 3L)", "setting": "Wild-Type, Isoproterenol 1.00E-10 M, replicates 1-3 and Average", "value": "100.00 and 99.63 and 97.46 and 99.03"}, {"measurement": "competition binding curve vs isoproterenol (Extended Data Figure 3L), Fit", "setting": "Wild-Type, Isoproterenol 5.00E-06 M", "value": 10.54}, {"measurement": "competition binding curve vs isoproterenol (Extended Data Figure 3L)", "setting": "Wild-Type, Isoproterenol 5.00E-06 M, replicates 1-3 and Average", "value": "11.05 and 8.39 and 11.22 and 10.22"}, {"measurement": "competition binding curve vs isoproterenol (Extended Data Figure 3L), Fit", "setting": "Wild-Type, Isoproterenol 5.00E-07 M", "value": 46.03}, {"measurement": "competition binding curve vs isoproterenol (Extended Data Figure 3L)", "setting": "Wild-Type, Isoproterenol 5.00E-07 M, replicates 1-3 and Average", "value": "47.06 and 40.75 and 51.12 and 46.31"}, {"measurement": "% Cyanopindolol Bmax, Average", "setting": "β2AR ∆ICL3 + 30 µM Gq-peptide, isoproterenol 3.00E-06 M", "value": 34.71, "unit": "%"}, {"measurement": "% Cyanopindolol Bmax, Average", "setting": "β2AR ∆ICL3 + 30 µM Gq-peptide, isoproterenol 5.00E-06 M", "value": 27.06, "unit": "%"}, {"measurement": "% Cyanopindolol Bmax, Average", "setting": "β2AR ∆ICL3 + 30 µM Gq-peptide, isoproterenol 5.00E-07 M", "value": 70.37, "unit": "%"}, {"measurement": "% Cyanopindolol Bmax, Average", "setting": "β2AR ∆ICL3, isoproterenol 3.00E-06 M", "value": 30.73, "unit": "%"}, {"measurement": "% Cyanopindolol Bmax, Average", "setting": "β2AR ∆ICL3, isoproterenol 5.00E-06 M", "value": 15.67, "unit": "%"}, {"measurement": "% Cyanopindolol Bmax, Average", "setting": "β2AR ∆ICL3, isoproterenol 5.00E-07 M", "value": 65.90, "unit": "%"}]}]}
